# Values of other authors in patent publication US20250312270A1, “READY-TO-INFUSE PHENYLEPHRINE COMPOSITIONS” (AMNEAL EU, LIMITED, priority 2023, published 2025).
# Tested on: blood pressure
# Conditions: doses above 6 mcg/kg/min, intravenous continuous infusion, adult patients with septic or other vasodilatory shock
compound,measurement,value
"CNC[C@H](O)c1cccc(O)c1 [phenylephrine, (R)-3-Hydroxy-α-(methylaminomethyl)benzyl alcohol]",incremental increase in blood pressure,do not show significant incremental increase in blood pressure
